Test systems include A549; ACHN; BT-549; CCRF-CEM; DU-145; EKVX; HCC 2998; HOP-62; LOX IMVI; MDA-MB-231; MDA-N; NCI-H226; NCI-H23; NCI-H460; NCI-H522; NCI/ADR-RES; OVCAR-8; SF-539; SNB-75; T47D.
Holding throughout (experiment): DTP human tumour cell line panel, 48 h

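48-hour exposure; five concentrations; linearly interpolated endpoints. GI50: concentration for 50% inhibition of growth.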 Active and inactive are the calls of the source. No stated cut-off is given here; in the data, active = GI50 up to about 1.1 µM and inactive = higher.

Regarding `CCOP(=O)(COCCn1ncc(=O)[nH]c1=O)OCC`, the GI50 in the experiment with A549, in the experiment with ACHN, with BT-549, in the experiment with CCRF-CEM, with DU-145 and in the experiment on EKVX was > 100 µM (inactive) each time. In addition, the GI50 with HCC 2998, in the experiment with HOP-62, in the experiment with LOX IMVI, in the experiment on MDA-MB-231, in the experiment with MDA-N and in the experiment with NCI-H226 was > 100 µM (inactive) each time. The GI50 with NCI-H23, in the experiment with NCI-H460, in the experiment with NCI-H522, in the experiment on NCI/ADR-RES, in the experiment on OVCAR-8 and with SF-539 was > 100 µM (inactive) each time. Also, the GI50 with SNB-75 and in the experiment on T47D was > 100 µM (inactive) each time.
`CCN(CC)COC(=S)S`: the GI50 was > 100 µM (inactive) in the experiment on A549; > 100 µM (inactive) in the experiment with ACHN; > 94.6 µM (inactive) with BT-549; 0.0162 µM (active) with CCRF-CEM; 54.6 µM (inactive) in the experiment on DU-145; > 100 µM (inactive) in the experiment with EKVX. Moreover, the GI50 is > 49.9 µM (inactive) in the experiment on HCC 2998; 48.8 µM (inactive) in the experiment on HOP-62; 41.8 µM (inactive) with LOX IMVI; 35.4 µM (inactive) in the experiment on MDA-MB-231; > 63.2 µM (inactive) in the experiment with MDA-N; > 100 µM (inactive) with NCI-H226. Also, the GI50 in the experiment on NCI-H23 is > 100 µM (inactive); in the experiment with NCI-H460 it was 30.1 µM (inactive); in the experiment on NCI-H522, 3.61 µM (inactive); in the experiment with NCI/ADR-RES, > 88.1 µM (inactive); in the experiment on OVCAR-8 it was 42.4 µM (inactive); in the experiment on SF-539 it was 90.6 µM (inactive). Moreover, the GI50 with SNB-75 was 30.5 µM (inactive); in the experiment with T47D, > 100 µM (inactive).

By GI50 is commonly meant the concentration at which growth is held to half of that of the control.
